Data from publication PMC11412900 (Molecular Psychiatry, 2024).
Where two headings read alike, the source gives them in different places.

What was measured:
h5-HT1AR = molecular target: T1, h5-HT1AR (Homo sapiens, UniProt P08908); experiment: Radioligand binding, [3H]8-OH-DPAT displacement
T1 construct: purchased Perkin Elmer, Inc. (Waltham, MA, USA)
T1 sequence (P08908 1-422): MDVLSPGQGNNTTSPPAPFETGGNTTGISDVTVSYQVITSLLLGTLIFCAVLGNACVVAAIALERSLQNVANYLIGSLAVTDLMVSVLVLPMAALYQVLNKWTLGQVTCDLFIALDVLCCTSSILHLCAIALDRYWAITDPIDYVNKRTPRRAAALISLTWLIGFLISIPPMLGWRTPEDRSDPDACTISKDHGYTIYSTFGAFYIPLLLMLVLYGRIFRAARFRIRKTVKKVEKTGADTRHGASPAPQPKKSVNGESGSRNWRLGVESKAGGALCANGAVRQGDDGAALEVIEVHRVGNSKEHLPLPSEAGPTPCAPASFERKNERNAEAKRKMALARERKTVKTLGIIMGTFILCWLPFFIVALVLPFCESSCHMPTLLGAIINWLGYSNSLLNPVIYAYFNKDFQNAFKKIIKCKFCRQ
Method: (§1) Binding assays were performed as described previously. Briefly, membrane preparations expressing h5-HT1AR, h5-HT2AR or hSERT (see Supplementary Material) were incubated with radiolabeled selective ligands 0.4 nM [^3H]8-OH-DPAT, 1 nM [^3H]ketanserin or 3 nM [^3H]imipramine, respectively. The drugs were diluted in the corresponding binding buffer and tested at increasing concentrations in duplicate. Binding reactions were performed in tubes containing the drug dilutions; 25 μl of the corresponding radioligand; and the membranes (10 μg and 5 μg/500 μL for 5-HT1AR and 5-HT2AR, respectively, and 15 μg/100 μL for hSERT), all diluted in binding buffer. […] Incubation was performed for 1 h at 27 °C for 5-HT1A/2AR and 22 °C for hSERT, according to the manufacturer’s protocol (Perkin Elmer, Inc., Waltham, MA, USA) and previous studies - saturation and kinetic experiments, respectively. The binding reactions were stopped by rapid filtration through GF/B glass microfiber filters pre-soaked with 0.5% polyethyleneimine and washing with ice-cold wash buffer. The filters were placed into vials and scintillation cocktail was added. The trapped radioactivity was quantified. Specific binding was defined as the difference between total binding (binding buffer alone) and non-specific binding. Experiments were conducted per duplicate for at least three independent experiments.

h5-HT2AR = molecular target: T2, h5-HT2AR (Homo sapiens, UniProt P28223); format: binding; details: 1 nM [3H]ketanserin, N ≥ 3; read-out: 5-HT2AR Ki ± SD
T2 construct: purchased Perkin Elmer, Inc. (Waltham, MA, USA)
T2 sequence (P28223 whole entry): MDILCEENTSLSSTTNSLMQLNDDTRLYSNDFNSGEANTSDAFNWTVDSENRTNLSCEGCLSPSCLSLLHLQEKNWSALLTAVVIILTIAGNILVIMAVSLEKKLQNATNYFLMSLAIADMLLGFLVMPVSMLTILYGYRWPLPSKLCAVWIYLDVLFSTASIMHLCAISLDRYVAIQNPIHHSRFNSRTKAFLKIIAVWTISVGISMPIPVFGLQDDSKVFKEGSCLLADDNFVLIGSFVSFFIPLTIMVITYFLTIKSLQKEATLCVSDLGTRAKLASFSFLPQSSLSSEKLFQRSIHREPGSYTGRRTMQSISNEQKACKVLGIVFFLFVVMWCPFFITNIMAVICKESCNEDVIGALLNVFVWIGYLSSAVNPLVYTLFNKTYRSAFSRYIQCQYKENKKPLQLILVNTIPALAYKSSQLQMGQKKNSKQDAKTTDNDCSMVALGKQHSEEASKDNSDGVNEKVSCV
Method: as §1

[1] = system: horizontal locomotor activity in mice; experiment: Horizontal locomotor activity (HLA); format: in vivo; details: i.p., 30 min; for HLA (hypolocomotion) Emax (95% CI): total traveled distance
Method: The HLA test was carried out according to a previous study. The same animals (N = 8–10 per group) used for the assessment of HTR were recorded for 30 min in an observation arena, under low-light conditions with white noise. Video recordings were processed using a tracking software (Smart 3.0 Panlab, Barcelona, Spain) to measure the total traveled distance.
(§2) Data were expressed as means±standard deviation (SD). Competition, release and functional assays, and substrate-induced current curves were plotted and fitted by non-linear regression to obtain the IC50, EC50, and Emax values. For behavioral studies, data were fitted by non-linear regression and pED50 and Emax values (with the corresponding 95% CI) were estimated by means of a software (GraphPad Prism 10) that further extrapolates the data. The Cheng-Prusoff equation was used to calculate Ki (affinity): Ki = […]/(1 + [radioligand-concentration/Kd]). HTR curves were fitted using a Gaussian equation as described. Data from batch release assays were statistically analyzed with a mixed-effects model, employing Šidák’s correction for multiple comparisons. Total release at each concentration and the behavioral experiments with the corresponding antagonists were statistically analyzed using one-way ANOVA, followed by Tukey’s post-hoc test. Molecular volume (van der Waals) was calculated using a grid approximation (spacing 0.75 Å). logP was calculated using Molinspiration Cheminformatics software. For in vivo studies, one-way ANOVA with Dunnet’s post-hoc test was used to compare all conditions to saline in dose-response experiments when data were normally distributed. Otherwise, a non-parametric test (Kruskall-Wallis with Dunn’s post-hoc test) was used. Alpha was set at 0.05. Outliers were excluded following ROUT’s method (Q = 0.1%). All statistical analyses and Pearson correlations were conducted using GraphPad Prism 10 software (GraphPad software, San Diego, CA, USA).

[2] = system: core body temperature in mice; experiment: Core body temperature measurement; format: in vivo; details: mice, i.p., 60 min after injection
Method: Rectal temperature of mice (N = 8–10 per group) was measured 60 min after i.p. injection of the corresponding compound (see previous section “Head twitch response”). This time point was chosen according to the maximal effect observed in pilot experiments. A thermocouple probe (YS451, Panlab, Barcelona, Spain) connected to a digital thermometer (TMP812RS, Panlab, Barcelona, Spain) was inserted 2 cm into the rectum and steady temperature readout was obtained after 10 s of insertion.
as §2

SERT [3] = molecular target: T3, SERT (Homo sapiens, UniProt P31645); experiment: Whole-cell patch clamp, transporter-mediated currents in HEK293 cells; format: cell-based; details: for EC50: clamped at −60 mV, N = 5, read-out: SERT-mediated inward current EC50; for SERT-mediated inward current Emax: normalized to current elicited by 5-HT 10 µM; for SERT substrate type: whole-cell patch clamp
T3 construct: YFP (yellow-fluorescent protein); expressed in transfected cells
T3 sequence (P31645 whole entry): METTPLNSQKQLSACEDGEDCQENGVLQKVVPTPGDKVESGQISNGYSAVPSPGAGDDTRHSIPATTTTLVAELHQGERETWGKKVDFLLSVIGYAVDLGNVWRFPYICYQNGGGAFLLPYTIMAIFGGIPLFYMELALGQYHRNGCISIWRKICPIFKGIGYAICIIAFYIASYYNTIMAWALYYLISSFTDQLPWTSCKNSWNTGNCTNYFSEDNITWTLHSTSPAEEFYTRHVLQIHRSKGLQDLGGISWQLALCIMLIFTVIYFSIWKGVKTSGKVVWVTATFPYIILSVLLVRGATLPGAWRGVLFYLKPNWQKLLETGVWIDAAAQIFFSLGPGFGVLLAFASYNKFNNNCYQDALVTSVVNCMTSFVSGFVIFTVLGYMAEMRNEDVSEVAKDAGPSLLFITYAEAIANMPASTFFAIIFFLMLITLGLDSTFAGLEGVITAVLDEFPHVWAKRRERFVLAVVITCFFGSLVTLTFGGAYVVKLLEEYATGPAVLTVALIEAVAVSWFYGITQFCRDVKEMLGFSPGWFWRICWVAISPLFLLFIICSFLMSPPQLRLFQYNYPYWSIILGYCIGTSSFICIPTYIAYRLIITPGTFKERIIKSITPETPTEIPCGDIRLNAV
Source text: Whole-cell patch clamping was used to measure the transporter-mediated currents and performed as previously described. […] Cells were continuously superfused by a DAD-12 superfusion system and an 8-tube perfusion manifold (ALA Scientific Instruments in Farmingdale, NY, USA), which allowed to apply a physiological external solution. The pipette solution mimics the internal ionic composition of a cell. […] Passive holding currents were subtracted, and the traces were filtered using a 50-Hz digital Gaussian low-pass filter for analysis purposes. Five independent experiments were performed.

SERT [4] = molecular target: T3, SERT; experiment: Superfusion release assay of [3H]5-HT; format: cell-based
Method: Concentration-response release assays were performed using a superfusion assay. […] Afterwards, cells were manually and gently washed once with KHB, and superfused with KHB at a rate of 0.5 mL/min for 10 min at room temperature (RT), to establish a stable basal release. Three 2 min-fractions of basal release were collected in 10 mL counting vials before exposing cells to various concentrations of 5-MeO-pyr-T (five fractions). Subsequently, the cells were superfused with 1% SDS for three final fractions to determine total radioactivity present at cells at the end of the experiment. 2 mL of scintillation cocktail was added to each vial, radioactivity was measured and expressed as percentage of released radioactivity in relation to the total radioactivity present at the beginning of that fraction. Experiments were performed per triplicate for five independent experiments.

[5] = 0.4 nM [3H]8-OH-DPAT, N ≥ 3, read-out: 5-HT1AR Ki ± SD

C=CCN(CC=C)CCc1c[nH]c2ccc(OC)cc12 [5-MeO-DALT]
Ki (h5-HT1AR; [5]): 3.26 ± 0.39 nM
Ki (h5-HT2AR): 71.7 ± 14.8 nM
HLA (hypolocomotion) ED50 [1]: 6.22 mg/kg
HLA (hypolocomotion) Emax (95% CI) [1]: 73.11 (57.45–88.78) % reduction
Change in body temperature ED50 [2]: 13.6 mg/kg

CCN(CC)CCc1c[nH]c2ccc(OC)cc12 [5-MeO-DET]
Ki (h5-HT1AR; [5]): 4.93 ± 0.62 nM
Ki (h5-HT2AR): 128 ± 4 nM
EC50 (SERT [3]): 3500 nM
SERT-mediated inward current Emax (SERT [3]): 0.26
SERT substrate type (SERT [3]): partial SERT substrates
HLA (hypolocomotion) ED50 [1]: 4.78 mg/kg
HLA (hypolocomotion) Emax (95% CI) [1]: 63.56 (37.58–89.53) % reduction
Change in body temperature ED50 [2]: 7.18 mg/kg

COc1ccc2[nH]cc(CCN(C(C)C)C(C)C)c2c1 [5-MeO-DIPT, 5-methoxy-N,N-diisopropyltryptamine]
Ki (h5-HT1AR): 15.8 ± 1.3 nM
ED50 ([1]; Mus musculus, ip, 0.5 h, read-out: HLA (hypolocomotion) ED50): 4.52 mg/kg
HLA (hypolocomotion) Emax (95% CI) [1]: 55.32 (38.20–72.44) % reduction
ED50 ([2]; Mus musculus, ip, 1 h, read-out: Change in body temperature ED50): 14.8 mg/kg

CCN(CCc1c[nH]c2ccc(OC)cc12)C(C)C [5-MeO-EIPT]
Ki (h5-HT1AR; [5]): 18.4 ± 8.4 nM
Ki (h5-HT2AR): 151 ± 26 nM
HLA (hypolocomotion) ED50 [1]: 4.82 mg/kg
HLA (hypolocomotion) Emax (95% CI) [1]: 68.02 (54.57–81.46) % reduction
Change in body temperature ED50 [2]: 15.0 mg/kg

CCN(C)CCc1c[nH]c2ccc(OC)cc12 [5-MeO-MET]
Ki (h5-HT1AR; [5]): 3.11 ± 0.51 nM
Ki (h5-HT2AR): 94.1 ± 16.7 nM
EC50 (SERT [3]): 13000 nM
SERT-mediated inward current Emax (SERT [3]): 0.46
SERT substrate type (SERT [3]): partial SERT substrates
HLA (hypolocomotion) ED50 [1]: 1.70 mg/kg
HLA (hypolocomotion) Emax (95% CI) [1]: 66.79 (58.20–75.37) % reduction
Change in body temperature ED50 [2]: 4.76 mg/kg

COc1ccc2[nH]cc(CCN(C)C(C)C)c2c1 [5-MeO-MIPT]
Ki (h5-HT1AR; [5]): 24.8 ± 7.6 nM
Ki (h5-HT2AR): 147 ± 32 nM
HLA (hypolocomotion) ED50 [1]: 6.57 mg/kg
HLA (hypolocomotion) Emax (95% CI) [1]: 82.78 (62.16–103.4) % reduction
Change in body temperature ED50 [2]: 14.8 mg/kg

COc1ccc2[nH]cc(CCN3CCCC3)c2c1 [5-MeO-pyr-T]
Ki (h5-HT1AR; [5]): 0.577 ± 0.195 nM
Ki (h5-HT2AR): 373 ± 59 nM
EC50 (SERT [3]): 90 nM
SERT-mediated inward current Emax (SERT [3]): 0.49
SERT substrate type (SERT [3]): partial SERT substrates
HLA (hypolocomotion) ED50 [1]: 1.60 mg/kg
HLA (hypolocomotion) Emax (95% CI) [1]: 71.25 (60.71–81.79) % reduction
5-HT releaser type (SERT [4]; peak of efflux vs positive control pCA): 5-HT partial releaser
EC50 (SERT [4]; read-out: 5-HT release EC50, superfusion, N = 5): 5700 ± 1590 nM
Change in body temperature ED50 [2]: 2.89 mg/kg
